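Cultured in 96-well plates, cells were exposed to test compound for 48 hours across five concentrations. GI50 = concentration required for 50% inhibition of growth.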 Activity calls are given as the source filed them. Rule as the data show it: active = GI50 up to about 1.1 µM and inactive = higher.
Key:
Experiment in all cases: NCI anticancer screen, dose series, 48 h
786-0 = test system: 786-0
ACHN = test system: ACHN
LOX IMVI = test system: LOX IMVI
MCF7 = test system: MCF7
MOLT-4 = test system: MOLT-4
Malme-3M = test system: Malme-3M
NCI-H23 = test system: NCI-H23
NCI-H460 = test system: NCI-H460
NCI-H522 = test system: NCI-H522
PC-3 = test system: PC-3
SF-295 = test system: SF-295
SK-OV-3 = test system: SK-OV-3
SN12C = test system: SN12C
SNB-19 = test system: SNB-19
SNB-75 = test system: SNB-75
T47D = test system: T47D
UACC-62 = test system: UACC-62
UO-31 = test system: UO-31
HCC 2998 = test system: HCC 2998
HL-60 = test system: HL-60

CN(Cc1cnc2nc(N)nc(N)c2n1)c1ccc(C(=O)NC(CCC(=O)NC(CC(P(=O)(O)O)P(=O)(O)O)C(=O)O)C(=O)O)cc1 (stereo not drawn)
GI50 (786-0): > 100 µM (inactive)
GI50 (ACHN): > 100 µM (inactive)
GI50 (LOX IMVI): > 100 µM (inactive)
GI50 (MCF7): > 100 µM (inactive)
GI50 (MOLT-4): > 100 µM (inactive)
GI50 (Malme-3M): > 100 µM (inactive)
GI50 (NCI-H23): > 100 µM (inactive)
GI50 (NCI-H460): > 100 µM (inactive)
GI50 (NCI-H522): > 100 µM (inactive)
GI50 (PC-3): > 100 µM (inactive)
GI50 (SF-295): > 100 µM (inactive)
GI50 (SK-OV-3): > 100 µM (inactive)
GI50 (SN12C): > 100 µM (inactive)
GI50 (SNB-19): > 100 µM (inactive)
GI50 (SNB-75): > 100 µM (inactive)
GI50 (T47D): > 100 µM (inactive)
GI50 (UACC-62): > 100 µM (inactive)
GI50 (UO-31): > 100 µM (inactive)

CC(=O)N1C(C(=O)NN2CCOCC2)CSC1c1ccccc1 (stereo not drawn)
GI50 (786-0): > 100 µM (inactive)
GI50 (ACHN): > 100 µM (inactive)
GI50 (HCC 2998): > 100 µM (inactive)
GI50 (LOX IMVI): > 100 µM (inactive)
GI50 (MCF7): > 100 µM (inactive)
GI50 (MOLT-4): > 100 µM (inactive)
GI50 (Malme-3M): > 100 µM (inactive)
GI50 (NCI-H23): > 100 µM (inactive)
GI50 (NCI-H460): > 100 µM (inactive)
GI50 (NCI-H522): > 100 µM (inactive)
GI50 (PC-3): > 100 µM (inactive)
GI50 (SF-295): > 100 µM (inactive)
GI50 (SK-OV-3): > 100 µM (inactive)
GI50 (SN12C): > 100 µM (inactive)
GI50 (SNB-19): > 100 µM (inactive)
GI50 (SNB-75): > 100 µM (inactive)
GI50 (T47D): > 100 µM (inactive)
GI50 (UACC-62): > 100 µM (inactive)
GI50 (UO-31): > 100 µM (inactive)

N=c1c2c(ncn1N)Oc1c(c(-c3ccccc3)nn1-c1ccccc1)C2c1ccc(Cl)cc1 (stereo not drawn)
GI50 (786-0): 1.63 µM (inactive)
GI50 (ACHN): 2.04 µM (inactive)
GI50 (HCC 2998): 0.762 µM (active)
GI50 (HL-60): 0.408 µM (active)
GI50 (LOX IMVI): 1.48 µM (inactive)
GI50 (MCF7): 1.44 µM (inactive)
GI50 (MOLT-4): 0.895 µM (active)
GI50 (Malme-3M): 1.61 µM (inactive)
GI50 (NCI-H23): 1.87 µM (inactive)
GI50 (NCI-H460): 1.42 µM (inactive)
GI50 (PC-3): 1.63 µM (inactive)
GI50 (SF-295): 1.66 µM (inactive)
GI50 (SK-OV-3): 1.85 µM (inactive)
GI50 (SN12C): 1.79 µM (inactive)
GI50 (SNB-19): 1.47 µM (inactive)
GI50 (SNB-75): 1.5 µM (inactive)
GI50 (T47D): 2.3 µM (inactive)
GI50 (UACC-62): 1.54 µM (inactive)
GI50 (UO-31): 1.64 µM (inactive)

C[C@@H]1OC2(O)[C@@H]3CCCN3C(=O)N(Cc3ccccc3)N2C1=O (stereo partly drawn)
GI50 (786-0): > 100 µM (inactive)
GI50 (ACHN): > 100 µM (inactive)
GI50 (HCC 2998): > 100 µM (inactive)
GI50 (HL-60): > 100 µM (inactive)
GI50 (LOX IMVI): > 100 µM (inactive)
GI50 (MCF7): > 100 µM (inactive)
GI50 (MOLT-4): > 100 µM (inactive)
GI50 (Malme-3M): > 100 µM (inactive)
GI50 (NCI-H23): > 100 µM (inactive)
GI50 (NCI-H460): > 100 µM (inactive)
GI50 (PC-3): > 100 µM (inactive)
GI50 (SF-295): > 100 µM (inactive)
GI50 (SK-OV-3): > 100 µM (inactive)
GI50 (SN12C): > 100 µM (inactive)
GI50 (SNB-19): > 100 µM (inactive)
GI50 (SNB-75): 0.331 µM (active)
GI50 (T47D): > 100 µM (inactive)
GI50 (UACC-62): > 100 µM (inactive)

COC(=O)C1(C(=O)OC)N=C(C)OC1c1ccccn1 (stereo not drawn)
GI50 (786-0): > 100 µM (inactive)
GI50 (ACHN): > 100 µM (inactive)
GI50 (HCC 2998): > 100 µM (inactive)
GI50 (HL-60): > 100 µM (inactive)
GI50 (LOX IMVI): > 100 µM (inactive)
GI50 (MCF7): > 100 µM (inactive)
GI50 (MOLT-4): > 100 µM (inactive)
GI50 (NCI-H23): > 100 µM (inactive)
GI50 (NCI-H460): > 100 µM (inactive)
GI50 (PC-3): > 100 µM (inactive)
GI50 (SF-295): > 100 µM (inactive)
GI50 (SK-OV-3): > 100 µM (inactive)
GI50 (SN12C): > 100 µM (inactive)
GI50 (SNB-19): > 100 µM (inactive)
GI50 (SNB-75): > 100 µM (inactive)
GI50 (T47D): > 100 µM (inactive)
GI50 (UACC-62): > 100 µM (inactive)
GI50 (UO-31): > 100 µM (inactive)

Nc1n[n+](CC(=O)c2ccccc2)c2sc(-c3ccccc3)nn12
GI50 (786-0): > 100 µM (inactive)
GI50 (ACHN): > 100 µM (inactive)
GI50 (LOX IMVI): 54 µM (inactive)
GI50 (MCF7): 51.4 µM (inactive)
GI50 (MOLT-4): 90.6 µM (inactive)
GI50 (Malme-3M): > 100 µM (inactive)
GI50 (NCI-H23): > 100 µM (inactive)
GI50 (NCI-H460): > 100 µM (inactive)
GI50 (NCI-H522): 95.5 µM (inactive)
GI50 (PC-3): 73.8 µM (inactive)
GI50 (SF-295): 64.7 µM (inactive)
GI50 (SK-OV-3): > 100 µM (inactive)
GI50 (SN12C): > 100 µM (inactive)
GI50 (SNB-19): > 100 µM (inactive)
GI50 (SNB-75): > 100 µM (inactive)
GI50 (T47D): > 100 µM (inactive)
GI50 (UACC-62): 13.9 µM (inactive)
GI50 (UO-31): 79.3 µM (inactive)

NC(=O)NCCCC(NC(=O)OCCCCCCn1ccc(=O)[nH]c1=O)C(=O)O (stereo not drawn)
GI50 (786-0): > 100 µM (inactive)
GI50 (ACHN): > 100 µM (inactive)
GI50 (HCC 2998): > 100 µM (inactive)
GI50 (HL-60): > 100 µM (inactive)
GI50 (LOX IMVI): > 100 µM (inactive)
GI50 (MCF7): > 100 µM (inactive)
GI50 (MOLT-4): > 100 µM (inactive)
GI50 (NCI-H23): > 100 µM (inactive)
GI50 (NCI-H460): > 100 µM (inactive)
GI50 (PC-3): > 100 µM (inactive)
GI50 (SF-295): > 100 µM (inactive)
GI50 (SK-OV-3): > 100 µM (inactive)
GI50 (SN12C): 50.2 µM (inactive)
GI50 (SNB-19): > 100 µM (inactive)
GI50 (SNB-75): > 100 µM (inactive)
GI50 (T47D): > 100 µM (inactive)
GI50 (UACC-62): > 100 µM (inactive)
GI50 (UO-31): > 100 µM (inactive)
